# Measured values from patent publication US20070128657A1, “Molecular libraries” (priority 2002, published 2007).
# Tests used:
# Assay type in all cases: cell-based, Homo sapiens (human)
# [1] = test system: Saos2 cells (no p53 copy); experiment: Cell proliferation status after ligand transfection, Saos-2; conditions: Saos-2, without puromycin selection
# Procedure: (§1) The purpose of this experiment is to confirm that the selected peptide ligand indeed restores the mutated p53 protein to the wild-type p53 function in SW480.7 cells. […] There might be a chance that the cells got the resistance with, or even without the help of the selected ligand via mechanisms other than p53-transactivated p21 promoter. Thus we should make sure that the mutant p53 in SW480.7 cells functions as wild-type p53 only if the selected ligand is added. […] The selected peptide ligand can be further verified only if it can induce cell cycle arrest or apoptosis in SW480.7 cells but neither in U-2 OS nor in Saos2 cells, which means the specificity of the selected ligand to p53 mutation in SW480.7. • 2—We also tested the transcription levels of genes that are only transactivated by wild-type p53.
# (§2) Cells SW480.7, U-2OS, and Sa-os2 were transfected with peptide ligand and pCEP4 parallelly using the calcium phosphate method.
# (§3) After transfection, cells were cultured without drug selection and diluted at the ratio of 1:100 every five days. Cell proliferation status was closely observed until ligand transfected SW480.7 cells died out. Life staining with 0.4% trypan blue was applied to determine the death of the cells. Dead cells can not exclude the dye thus were stained blue. Living cells can pump the dye outside thus were not stained. […]
# R273H/P309S p53 mutant = experiment: RT-PCR of genes transactivated by wild-type p53 in ligand transfected SW480.7 cells
# Procedure: as §1
# P53 (wild-type) regulates different cell responses via transactivating different downstream genes. For example p53 causes cell cycle arrest at G1 phase by transactivation of p21 gene. While p53 causes cell arrest at G2 phase by transactivation of […]. Apoptosis is due to p53 transactivation of […] and/or Bax gene. Thus we measured p21, CD95, and 14-3-3σ gene transcription levels by RT PCR, to reveal the capability of the selected peptide ligand in restoring the wild-type p53 transactivation of the downstream genes. The expression level of β-actin was measured as a control. β-Actin transcription level was used to normalize total mRNA amount between samples for comparison owing to its constitutive expression in all cells.
# After transfection, cells were cultured without drug selection and diluted at the ratio of 1:100 every five days. Cell proliferation status was closely observed until ligand transfected SW480.7 cells died out. Life staining with 0.4% trypan blue was applied to determine the death of the cells. Dead cells can not exclude the dye thus were stained blue. Living cells can pump the dye outside thus were not stained. Total RNA was collected from two wells of one ligand transfected SW480.7 plate and one pCEP4 transfected SW480.7 plate each day on day 0, day 1, and day 2 after transfection. Thus RNA samples were harvested as SW480.7/Ligand-0 day, SW480.7/Ligand-1 day, SW480.7/Ligand-2 day, SW480.7/pCEP4-0 day, SW480.7/pCEP4-1 day, SW480.7/pCEP4-2 day. Protocol for total RNA extraction by TRIZOL® Reagent was according to that given by Life Technology:
# cDNA Amplification by PCR
# 8. Electrophoreses 5 μl of each PCR reaction alongside 0.1 μg of 1-kb DNA ladder on a 1.2% agarose/EtBr gel in 1×TBE buffer.
# U-2 OS (WTp53) = experiment: Cell proliferation status after ligand transfection, U-2 OS; conditions: U2-OS, without puromycin selection
# Procedure: as §1, §2, §3
# SW480.7 cells = experiment: Cell proliferation status / death after ligand transfection, SW480.7; conditions: SW480.7, 15 days, without puromycin selection
# Procedure: as §1, §2, §3
# [2] = ligand transfected SW480.7 compared with empty pCEP4 transfected SW480.7 cells
substance,measurement,setting,value
M G W C T (MGWCT; Peptide sequence translated from DNA extracted from library-transfected cells.) [ligand],Cell growth status after transfection of the ligand,[1],growing well
same,Restoration of wild type p53 function (RT-PCR analysis of mRNA),R273H/P309S p53 mutant; ligand transfected SW480.7 cells,can reestablish wild type p53 function
same,mRNA level of 14-3-3 gene,R273H/P309S p53 mutant; [2],Higher
same,mRNA level of CD95 gene,R273H/P309S p53 mutant; [2],Higher
same,mRNA level of p21 (WAF1/Cip1) gene,R273H/P309S p53 mutant; [2],Higher
same,Cell growth status after transfection of the ligand,U-2 OS (WTp53),growing well
same,Cell growth status after transfection of the ligand,SW480.7 cells,could no longer attach to the wall and died
